From US12668797B2, “Compositions and methods for treating chronic myelomonocytic leukemia” (H. Lee Moffitt Cancer Center and Research Institute, Inc., priority 2019, dated 2026)

Columns and labels:
[1] = system: myelomonocytic leukemia cell lines; test: Apoptosis in myelomonocytic leukemia cell lines; format: cell-based, human
human leukemic cells = test: Differentiation markers CD11b and CD14 by flow cytometry in human leukemic cells; format: cell-based; settings: stimulated cells, MALAT1 depleted versus control cells
THP-1 xenografts = test: THP-1 MALAT1 KO / WT xenografts treated with ATRA; format: in vivo, mice
From the text: Multiple MALAT1 depleted THP-1 leukemia cell line clones have been generated utilizing dual sgRNA-targeted CRISPR technology and partnered with IONIS pharmaceuticals to test clinical grade MALAT1 ASOs in a panel of cell lines. These reagents were used to evaluate the effects of MALAT1 depletion on the above cellular processes to include proliferation, cell cycle, and differentiation. […] Additionally, these models were used to test the impact of MALAT1 depletion on normal and leukemic stem cell self-renewal capacity as well as rigorously interrogated the numbers of hematopoietic stem and progenitor cells upon MALAT1 depletion. Leukemia human cell line xenograft models were used to test the in vivo consequence of MALAT1 depletion with the above CRISPR generated clones.
Differentiation syndrome is a common serious adverse event in human leukemia patients treated with differentiating agents. It is primarily characterized by an inflammatory reaction often a result of differentiated myeloid cells accumulating in target organs, especially the lungs.

[2] = system: NRAS^Q61R/+ and NRAS^Q61R/+/MALAT1^KO/KO transplanted mice; test: ATRA treatment of primary transplants from NRAS Q61R/+ GEM model of CMML; format: in vivo; settings: ATRA intraperitoneally
From the text: To validate the differentiation effect in vivo primary transplants were generated from NRAS^Q61R/+/MALAT1^KO/KO and NRAS^Q61R/+ followed by treatment with ATRA. […] Differentiation syndrome is a treatable but potentially fatal complication of approved therapies which induce differentiation in myeloid neoplasms hallmarked by increases in myeloid cell adhesion, invasion, and ultimately lung infiltration. There was a higher proportion of terminally differentiated cells in the lungs of NRAS^Q61R/+/MALAT1^KO/KO mice compared to controls (FIG. 8B). Further, MALAT1 depleted THP-1 cells had increased adhesion and endothelial migration compared to controls consist with an increased potential for differentiation syndrome (FIG. 8C).

THP-1 cells = test: Differentiation of THP-1 MALAT1 CRISPR KO cells (CD11b/CD14); format: cell-based, human; settings: MALAT1 depleted THP-1 versus control; ATRA 1 μM for 96 h (FIG. 7C)
From the text: To confirm that MALAT1 depletion could induce differentiation in human models of leukemia, MALAT1's major transcriptional start site was deleted via CRISPR/Cas9 as previously described in several single cell derived clones of the THP-1 cell line. THP-1 cells were chosen because they were derived from a patient with acute monocytic leukemia, they harbor an NRAS mutation, and they had the highest levels of MALAT1 in our screen of myeloid cell lines.

CMML patients = settings: 10 CMML patients, 45mg/m^2 of ATRA daily; cited from earlier work
[3] = system: acute promyelocytic leukemia (APL); settings: ATRA based therapy in APL; cited from earlier work

SMILES | dose-dependent apoptosis ([1]; ATRA alone) | apoptosis ([1]; ATRA in combination with MALAT1 depletion) | induction of apoptosis following ATRA treatment ([1]; FIG. 2, ATRA treatment) | differentiation markers CD11b and CD14 by flow cytometry upon stimulation (human leukemic cells) | differentiation syndrome (THP-1 xenografts; ATRA treated MALAT1 KO NSG xenografts, FIG. 1) | survival of xenografted mice (THP-1 xenografts; MALAT1 depleted xenografts treated with ATRA, pilot experiment) | survival of xenografted mice (THP-1 xenografts; WT xenografts treated with ATRA) | differentiation markers (Gr-1/Mac-1) [2] | response of differentiation markers (THP-1 cells) | patients who developed differentiation syndrome (CMML patients) [patients] | patients who succumbed to differentiation syndrome (CMML patients) [patients] | patients with improvement in transfusion requirements (CMML patients) | cure rates [3] [%]
CC1=C(/C=C/C(C)=C/C=C/C(C)=C/C(=O)O)C(C)(C)CCC1 [ATRA, all-trans retinoic acid] | did not cause a robust dose-dependent apoptosis | induced apoptosis in a dose-dependent manner | minimal induction of apoptosis | enhanced | evidence of differentiation syndrome | succumbed one-week post-ATRA therapy | remained unaffected | statistically significant differences | more robust response | 2 | 1 | four | ~95
CCCCCCCCCCCCCC(=O)O[C@@H]1[C@@H](C)[C@@]2(O)[C@@H](C=C(CO)C[C@]3(O)C(=O)C(C)=C[C@@H]23)[C@@H]2C(C)(C)[C@]12OC(C)=O [PMA, phorbol myristate acetate] | – | – | – | enhanced | – | – | – | – | more robust response | – | – | – | –
